# Experimental data published in US20240025919A1, “AZA-TETRACYCLIC OXAZEPINE COMPOUNDS AND USES THEREOF” (Genentech, Inc., priority 2022, published 2024).
# Columns and labels:
# [1] = target: KRAS G12D (Homo sapiens (Human), UniProt P01116, G12D); experiment: KRAS G12D LoEnz Biochemical Assay, BODIPY-GDP Exchange TR-FRET (SOS1-mediated nucleotide exchange); settings: read-out: KRas (G12D) GDP HTRF IC50
# [2] = target: KRAS WT (Homo sapiens (Human), UniProt P01116); experiment: KRAS WT Biochemical Assay, BODIPY-GDP Exchange TR-FRET (Example 501; 3 nM KRAS WT, 3 nM SOS1, 60-minute incubation); settings: read-out: KRas HTRF IC50
# Chain of KRAS WT (P01116-2 other isoform, or with tags, fused parts or gaps): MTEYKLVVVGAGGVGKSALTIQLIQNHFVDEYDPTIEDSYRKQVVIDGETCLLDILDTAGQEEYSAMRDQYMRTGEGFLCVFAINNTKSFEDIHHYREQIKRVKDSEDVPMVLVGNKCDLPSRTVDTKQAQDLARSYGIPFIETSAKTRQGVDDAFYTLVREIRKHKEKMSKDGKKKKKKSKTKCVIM
# Summary of the method: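 SOS1-mediated exchange assay: 3 nM biotin-KRAS WT with terbium-streptavidin, started with 3 nM SOS1 and 300 nM BODIPY-GDP, HEPES pH 7.5 with MgCl2. TR-FRET (520/490 nm) read after 60 min; normalized to DMSO and full-inhibition control, IC50 from 4-parameter Hill fit.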
# Chain of KRAS G12D (P01116-2 other isoform, or with tags, fused parts or gaps G12D): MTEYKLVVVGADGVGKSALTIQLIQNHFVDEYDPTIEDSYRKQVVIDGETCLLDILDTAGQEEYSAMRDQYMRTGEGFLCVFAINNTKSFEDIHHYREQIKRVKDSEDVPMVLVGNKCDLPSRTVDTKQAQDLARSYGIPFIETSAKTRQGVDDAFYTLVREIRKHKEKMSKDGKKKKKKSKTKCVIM
Compound,IC50 [1] [nM],IC50 [2] [nM]
"Cc1c(F)c(N)c(F)c(-c2nc3c4c(nc(OC[C@@]56CCCN5C/C(=C\F)C6)nc4c2F)N2C[C@H]4CC[C@H](N4)[C@H]2[C@H](C)O3)c1C(F)(F)F [Compound 229, 2,6-Difluoro-3-((5S,5aS,6S,9R)-1-fluoro-12-(((S,Z)-2-(fluoromethylene)tetrahydro-1H-pyrrolizin-7a(5H)-yl)methoxy)-5-methyl-5a,6,7,8,9,10-hexahydro-5H-4-oxa-3,10a,11,13,14-pentaaza-6,9-methanonaphtho[1,8-ab]heptalene-2-yl)-5-methyl-4-(trifluoromethyl)aniline]",0.36,12
"Cc1cc(N)cc(-c2nc3c4c(nc(OC[C@@H]5CC[C@H]6COCCN65)nc4c2F)N2C[C@H]4CC[C@H](N4)[C@H]2[C@H](C)O3)c1CC(F)F [Compound 230, 4-(2,2-Difluoroethyl)-3-((5S,5aS,6S,9R)-1-fluoro-12-(((6S,8aS)-hexahydro-1H-pyrrolo[2,1-c][1,4]oxazin-6-yl)methoxy)-5-methyl-5a,6,7,8,9,10-hexahydro-5H-4-oxa-3,10a,11,13,14-pentaaza-6,9-methanonaphtho[1,8-ab]heptalen-2-yl)-5-methylaniline]",1.13,213
"Cc1cc(N)c(F)c(-c2nc3c4c(nc(OC[C@@H]5CC[C@H]6COCCN65)nc4c2F)N2C[C@H]4CC[C@H](N4)[C@H]2[C@H](C)O3)c1CC(F)F [Compound 231, 4-(2,2-Difluoroethyl)-2-fluoro-3-((5S,5aS,6S,9R)-1-fluoro-12-(((6S,8aS)-hexahydro-1H-pyrrolo[2,1-c][1,4]oxazin-6-yl)methoxy)-5-methyl-5a,6,7,8,9,10-hexahydro-5H-4-oxa-3,10a,11,13,14-pentaaza-6,9-methanonaphtho[1,8-ab]heptalen-2-yl)-5-methylaniline]",4.6,1240
"CCc1c(F)c(N)cc(-c2nc3c4c(nc(OC[C@@H]5CC[C@H]6COCCN65)nc4c2F)N2C[C@H]4CC[C@H](N4)[C@H]2[C@H](C)O3)c1C(F)(F)F [Compound 232, 3-Ethyl-2-fluoro-5-((5S,5aS,6S,9R)-1-fluoro-12-(((6S,8aS)-hexahydro-1H-pyrrolo[2,1-c][1,4]oxazin-6-yl)methoxy)-5-methyl-5a,6,7,8,9,10-hexahydro-5H-4-oxa-3,10a,11,13,14-pentaaza-6,9-methanonaphtho[1,8-ab]heptalen-2-yl)-4-(trifluoromethyl)aniline]",2.86,277
"Cc1c(F)c(N)cc(-c2nc3c4c(nc(OC[C@@]56CCCN5C[C@H](F)C6)nc4c2F)N2C[C@H]4CC[C@H](NC4)[C@H]2CO3)c1C(F)(F)F [Compound 236, 2-Fluoro-5-((5aS,6S,9S)-1-fluoro-12-(((2R,7aS)-2-fluorotetrahydro-1H-pyrrolizin-7a(5H)-yl)methoxy)-5a,6,7,8,9,10-hexahydro-5H-4-oxa-3,10a,11,13,15-pentaaza-6,9-ethanonaphtho[1,8-ab]heptalene-2-yl)-3-methyl-4-(trifluoromethyl)aniline]",68,830
"Cc1c(F)c(N)cc(-c2nc3c4c(nc(OC[C@@]56CCCN5C[C@H](F)C6)nc4c2F)N2C[C@H]4CC[C@H](N4)[C@H]2C(CF)O3)c1C(F)(F)F (stereo partly drawn) [Compound 239, 2-Fluoro-5-((5aS,6S,9R)-1-fluoro-5-(fluoromethyl)-12-(((2R,7aS)-2-fluorotetrahydro-1H-pyrrolizin-7a(5H)-yl)methoxy)-5a,6,7,8,9,10-hexahydro-5H-4-oxa-3,10a,11,13,14-pentaaza-6,9-methanonaphtho[1,8-ab]heptalen-2-yl)-3-methyl-4-(trifluoromethyl)aniline]",0.58,0.94
"Cc1c(Cl)c(N)cc(-c2nc3c4c(nc(OC[C@@]56CCCN5C[C@H](F)C6)nc4c2Cl)N2C[C@H]4CC[C@H](N4)[C@H]2[C@H](C)O3)c1C(F)(F)F [Compound 241, 2-Chloro-5-((5S,5aS,6S,9R)-1-chloro-12-(((2R,7aS)-2-fluorotetrahydro-1H-pyrrolizin-7a(5H)-yl)methoxy)-5-methyl-5a,6,7,8,9,10-hexahydro-5H-4-oxa-3,10a,11,13,14-pentaaza-6,9-methanonaphtho[1,8-ab]heptalen-2-yl)-3-methyl-4-(trifluoromethyl)aniline]",0.13,15.4
"Cc1nc(N)cc(-c2nc3c4c(nc(OC[C@@]56CCCN5C[C@H](F)C6)nc4c2F)N2C[C@H]4CC[C@H](N4)[C@H]2[C@H](C(F)(F)F)O3)c1C(F)(F)F [Compound 242, 4-((5R,5aS,6S,9R)-1-Fluoro-12-(((2R,7aS)-2-fluorotetrahydro-1H-pyrrolizin-7a(5H)-yl)methoxy)-5-(trifluoromethyl)-5a,6,7,8,9,10-hexahydro-5H-4-oxa-3,10a,11,13,14-pentaaza-6,9-methanonaphtho[1,8-ab]heptalen-2-yl)-6-methyl-5-(trifluoromethyl)pyridin-2-amine]",0.33,5.29
"Cc1c(F)c(N)cc(-c2nc3c4c(nc(OC[C@@H]5CC[C@H]6COCCN65)nc4c2F)N2C[C@H]4CC[C@H](N4)[C@H]2[C@H](C(F)(F)F)O3)c1C(F)(F)F [Compound 245, 2-Fluoro-5-((5R,5aS,6S,9R)-1-fluoro-12-(((6S,8aS)-hexahydro-1H-pyrrolo[2,1-c][1,4]oxazin-6-yl)methoxy)-5-(trifluoromethyl)-5a,6,7,8,9,10-hexahydro-5H-4-oxa-3,10a,11,13,14-pentaaza-6,9-methanonaphtho[1,8-ab]heptalene-2-yl)-3-methyl-4-(trifluoromethyl)aniline]",0.249,7.44
"Cc1c(F)c(N)cc(-c2nc3c4c(nc(OC[C@@]56CCCN5C[C@H](F)C6)nc4c2F)N2C[C@H]4CC[C@H](N4)[C@H]2[C@H](C(F)(F)F)O3)c1C(F)(F)F [Compound 247, 2-Fluoro-5-((5R,5aS,6S,9R)-1-fluoro-12-(((2R,7aS)-2-fluorotetrahydro-1H-pyrrolizin-7a(5H)-yl)methoxy)-5-(trifluoromethyl)-5a,6,7,8,9,10-hexahydro-5H-4-oxa-3,10a,11,13,14-pentaaza-6,9-methanonaphtho[1,8-ab]heptalene-2-yl)-3-methyl-4-(trifluoromethyl)aniline]",0.21,0.959
"Cc1c(F)c(N)cc(-c2nc3c4c(nc(OC[C@@]56CCCN5C[C@H](F)C6)nc4c2F)N2C[C@H]4CC[C@H](N4)[C@@H]2[C@@H](C(F)(F)F)O3)c1C(F)(F)F [Compound 248, 2-Fluoro-5-((5S,5aR,6S,9R)-1-fluoro-12-(((2R,7aS)-2-fluorotetrahydro-1H-pyrrolizin-7a(5H)-yl)methoxy)-5-(trifluoromethyl)-5a,6,7,8,9,10-hexahydro-5H-4-oxa-3,10a,11,13,14-pentaaza-6,9-methanonaphtho[1,8-ab]heptalene-2-yl)-3-methyl-4-(trifluoromethyl)aniline]",1.1,0.522
"Cc1c(F)c(N)cc(-c2nc3c4c(nc(OCC5(CN6CCOCC6)CC5)nc4c2F)N2C[C@H]4CC[C@H](N4)[C@H]2[C@H](C(F)(F)F)O3)c1C(F)(F)F [Compound 249, 2-Fluoro-5-((5R,5aS,6S,9R)-1-fluoro-12-((1-(morpholinomethyl)cyclopropyl)methoxy)-5-(trifluoromethyl)-5a,6,7,8,9,10-hexahydro-5H-4-oxa-3,10a,11,13,14-pentaaza-6,9-methanonaphtho[1,8-ab]heptalene-2-yl)-3-methyl-4-(trifluoromethyl)aniline]",0.22,1.37
"Cc1c(F)c(N)cc(-c2nc3c4c(nc(OC[C@@]56CCCN5C[C@H](F)C6)nc4c2F)N2C[C@H]4CC[C@H](N4)[C@H]2[C@H](C(F)(F)F)O3)c1CC(F)F [Compound 250, 4-(2,2-Difluoroethyl)-2-fluoro-5-((5R,5aS,6S,9R)-1-fluoro-12-(((2R,7aS)-2-fluorotetrahydro-1H-pyrrolizin-7a(5H)-yl)methoxy)-5-(trifluoromethyl)-5a,6,7,8,9,10-hexahydro-5H-4-oxa-3,10a,11,13,14-pentaaza-6,9-methanonaphtho[1,8-ab]heptalene-2-yl)-3-methylaniline]",0.39,13.6
"C#Cc1cccc2cc(O)cc(-c3nc4c5c(nc(OC[C@@]67CCCN6C[C@H](F)C7)nc5c3F)N3C[C@H]5CC[C@H](N5)[C@H]3[C@H](C(F)(F)F)O4)c12 [Compound 251, 5-Ethynyl-4-((5R,5aS,6S,9R)-1-fluoro-12-(((2R,7aS)-2-fluorotetrahydro-1H-pyrrolizin-7a(5H)-yl)methoxy)-5-(trifluoromethyl)-5a,6,7,8,9,10-hexahydro-5H-4-oxa-3,10a,11,13,14-pentaaza-6,9-methanonaphtho[1,8-ab]heptalene-2-yl)naphthalen-2-ol]",0.16,1.05
"Cc1nc(N)cc(-c2nc3c4c(nc(OC[C@@H]5CC[C@H]6COCCN65)nc4c2F)N2C[C@H]4CC[C@H](N4)[C@H]2[C@H](C(F)(F)F)O3)c1C(F)(F)F [Compound 253, 4-((5R,5aS,6S,9R)-1-Fluoro-12-(((6S,8aS)-hexahydro-1H-pyrrolo[2,1-c][1,4]oxazin-6-yl)methoxy)-5-(trifluoromethyl)-5a,6,7,8,9,10-hexahydro-5H-4-oxa-3,10a,11,13,14-pentaaza-6,9-methanonaphtho[1,8-ab]heptalene-2-yl)-6-methyl-5-(trifluoromethyl)pyridin-2-amine]",1.03,37.1
"Cc1nc(N)cc(-c2nc3c4c(nc(OC[C@@]56CCCN5CC5(CC5(F)F)C6)nc4c2F)N2C[C@H]4CC[C@H](N4)[C@H]2[C@H](C(F)(F)F)O3)c1C(F)(F)F (stereo partly drawn) [Compound 254, 4-((5R,5aS,6S,9R)-12-(((7a′S)-2,2-Difluorodihydro-1′H,3′H-spiro[cyclopropane-1,2′-pyrrolizin]-7a′(5′H)-yl)methoxy)-1-fluoro-5-(trifluoromethyl)-5a,6,7,8,9,10-hexahydro-5H-4-oxa-3,10a,11,13,14-pentaaza[6,9]methanonaphtho[1,8-ab]heptalene-2-yl)-6-methyl-5-(trifluoromethyl)pyridin-2-amine]",0.49,1.25
